In US20060148752A1, “Method of treating soild tumors and leukemias using combination therapy of vitamin D and anti-metabolic nucleoside analogs” (priority 2004, published 2006):
“Also recorded” adds a separate entry of the source.

What was measured:
Type in all cases: cell-based, human
caspase-9 = assay: Caspase-9 cleavage (Western blot) and activity (colorimetric assay) in capan-1 cells; settings: vehicle or 0.75 μM calcitriol 24 h, then varying concentrations of gemcitabine
Experimental: (§1) FIG. 5 is a series of Western blots illustrating the effects of treatment with calcitriol and gemcitabine on caspase pathway induction in capan-1 cells. […] Cell lysates were prepared and analyzed by Western blot for caspase-3, caspase-6, caspase-8, and caspase-9. […] FIGS. 6A-D show quantitation of caspase-3, caspase-6, caspase-8, and caspase-9. Activity of caspase-3 (FIG. 6A), caspase-6 (FIG. 6B), caspase-8 (FIG. 6C), and caspase-9 (FIG. 6D) in capan-1 cells was measured by caspase-family colorimetric substrate assays, according to the manufacturer's protocol. Absorbance at 400 nm was determined, and the caspase activity was expressed as absorbance (ODU) per milligram of protein per reaction. […] Caspase activity was expressed as absorbance (O.D.) per milligram of protein per reaction. For Western blot analysis, capan-1 cells were harvested and lysed in Triton-X100/SDS buffer as described previously ([…] et al., J. Biol. Chem. 276(33):30923-33 (2001), which is hereby incorporated by reference in its entirety). Proteins were transferred to PVDF membrane, and Western blots developed using Renaissance Enhanced Chemiluminescence Reagents (NEN Life Science Products, Boston, Mass.) or SuperSignal (Pierce, Rockford, Ill.).

P-Akt = assay: Immunoblot of P-Akt expression in capan-1 cells; settings: vehicle or 0.75 μM calcitriol 24 h, then varying concentrations of gemcitabine 24 h
Experimental: (§2) FIG. 4 is an immunoblot showing inhibition of survival signaling pathways in capan-1 by treatment with gemcitabine and 1,25D3. Capan-1 cells were treated 24 h with either vehicle or 0.75 μM calcitriol and then were treated with varying concentrations of gemcitabine for another 24 h. Cells were processed for immunoblotting to assess P-ErK1/2 and P-Akt expression. P-Erk1/2 was not affected by either agent alone or by the calcitriol/gemcitabine combination. […] For Western blot analysis, capan-1 cells were harvested and lysed in Triton-X100/SDS buffer as described previously ([…] et al., J. Biol. Chem. 276(33):30923-33 (2001), which is hereby incorporated by reference in its entirety). Proteins were transferred to PVDF membrane, and Western blots developed using Renaissance Enhanced Chemiluminescence Reagents (NEN Life Science Products, Boston, Mass.) or SuperSignal (Pierce, Rockford, Ill.).

P-Erk1/2 = assay: Immunoblot of P-Erk1/2 expression in capan-1 cells; settings: vehicle or 0.75 μM calcitriol 24 h, then varying concentrations of gemcitabine 24 h
Experimental: as §2

caspase-8 = assay: Caspase-8 cleavage (Western blot) and activity (colorimetric assay) in capan-1 cells; settings: vehicle or 0.75 μM calcitriol 24 h, then varying concentrations of gemcitabine
Experimental: as §1

caspase-6 = assay: Caspase-6 cleavage (Western blot) and activity (colorimetric assay) in capan-1 cells; settings: vehicle or 0.75 μM calcitriol 24 h, then varying concentrations of gemcitabine
Experimental: as §1

Nc1ccn([C@@H]2O[C@H](CO)[C@@H](O)C2(F)F)c(=O)n1 [gemcitabine]
caspase-9 cleavage/activation (caspase-9): no significant change; also recorded: modestly increased
P-Akt levels (P-Akt): little affected; also recorded: not affected
P-Erk1/2 expression (P-Erk1/2): not affected
caspase-8 cleavage/activation (caspase-8): increase in the cleaved, activated form

C=C1/C(=C\C=C2/CCC[C@]3(C)[C@@H]([C@H](C)CCCC(C)(C)O)CC[C@@H]23)C[C@@H](O)C[C@@H]1O [calcitriol, 1,25-dihydroxycholecalciferol]
caspase-9 cleavage/activation (caspase-9): not cleaved at detectable levels; also recorded: modestly increased
P-Akt levels (P-Akt): modestly reduced
caspase-6 cleavage/activation (caspase-6): not cleaved at detectable levels
P-Erk1/2 expression (P-Erk1/2): not affected
caspase-8 cleavage/activation (caspase-8): not cleaved at detectable levels; also recorded: no change
